The values below are quoted from earlier work in patent US9109266B2, “Process of producing sugar composition comprising D-psicose and D-allose via strong alkaline isomerization of D-glucose/D-fructose or alkaline pre-treatment of D-glucose/D-fructose followed by isomerization in the presence of a basic ion exchange resin” (MATSUTANI CHEMICAL INDUSTRY CO., LTD., priority 2009, dated 2015).

Where two headings read alike, the source gives them in different places.

For series [1] the following is noted: non-patent reference 10 (report 4).
For series [2] the following is noted: for Body fat decrement ratio (%) / Body weight decrement ratio (%) / Feed intake decrement ratio (%): compared with control group; for reduction of blood sugar level / reduction of insulin level: reports 1 and 2.
The conditions of series [3]: D-psicose administration; non-patent reference 11.
Setting [4] is: Report 1, D-psicose at 5% in total solids.
Setting [5] is: Report 2, D-allose at 3% in total solids.

For `O=C[C@@H](O)[C@@H](O)[C@H](O)[C@H](O)CO` [D-mannose], in series [1], the “contribution to body weight” value was “never makes any contribution” and the “contribution to the amount of feed intake” value was “never makes any contribution”.

Take `O=C(CO)[C@H](O)[C@H](O)[C@H](O)CO` [D-psicose]: in series [2] (setting [4]), the “Body fat decrement ratio (%)” value was 15%, the “Body weight decrement ratio (%)” value is reported as 6% and the “Feed intake decrement ratio (%)” value is 6%. In series [2], the “reduction of blood sugar level” value is recorded as “No significant reduction” and the “reduction of insulin level” value is given as “No significant reduction”. For the same molecule, the “intra-day variation of insulin level” value in series [3] is “no reduction of insulin level”.

As for `O=C[C@H](O)[C@H](O)[C@H](O)[C@H](O)CO` [D-allose], in series [2] (setting [5]), the “Body fat decrement ratio (%)” value is given as 19%, the “Body weight decrement ratio (%)” value is recorded as 17% and the “Feed intake decrement ratio (%)” value is listed as 8%. Further, in series [2], the “reduction of blood sugar level” value was “No significant reduction” and the “reduction of insulin level” value was “No significant reduction”.
